The text below walks through data of the OPERA property sets (Mansouri et al. 2018).

Structures are written as SMILES. In brackets after ≈: the same amount, converted by molar mass.

Conditions in the first data set: not given
As to `C=CC(=O)NCCN(C)C`, the logP was -0.25.

Regarding `ClCC1(CCl)C2C(Cl)C(Cl)(Cl)C1(C(Cl)Cl)CC2(Cl)Cl` (configuration not stated), the log partition coefficient (logP) was determined as 6.26.

`CC(=O)CCC(C)C` gave a logP of 1.88.

On to `O=C(NCc1ccc(O)cc1)C(=O)c1c[nH]c2ccc([N+](=O)[O-])cc12`, for which the lipophilicity (logP) came out at 2.67.

As to `CC(C)(C#N)Nc1nc(Cl)nc(NC2CC2)n1`, the log partition coefficient (logP) stood at 1.99.

In turn, `CCCCCCOC(=O)C1=C=CC(=O)NC(=O)N1` returned a logP of 1.76.

Still in this data set, the particulars now being: 20 °C.
Take `ClCCOCCCl`: the solubility turned out to be 120 mM (≈ 17.2 mg/mL).

`CC1=C(c2ccccc2)C(=O)N(C(C)(C)c2cc(Cl)cc(Cl)c2)CO1` yielded a solubility of 0.000478 mM (≈ 0.00018 mg/mL).

`CC(O)CN(CC(C)O)CC(C)O` (configuration not stated) gave a solubility of 4340 mM (≈ 830 mg/mL).

With `CCC(=O)c1ccccc1`, the solubility was 14.9 mM (≈ 2 mg/mL).

Consider `C=Cc1ccccn1`, for which the solubility turned out to be 262 mM (≈ 27.5 mg/mL). Against the preceding compound, the solubility is about 18-fold higher.

`CC(C)(CO)[N+](=O)[O-]` gave a solubility of 29400 mM (≈ 3500 mg/mL).

Compound `N#Cc1ccncc1` displayed a solubility of 384 mM (≈ 40 mg/mL).

Still in this data set, the particulars now being: 22 °C.
On to `Clc1c(Cl)c(Cl)c2ccccc2c1Cl`, for which the solubility turned out to be 1.6e-05 mM (≈ 4.26e-06 mg/mL).

`O=[N+]([O-])c1ccc(Oc2c(Cl)cc(Cl)cc2Cl)cc1`: the solubility came out at 0.0024 mM (≈ 0.000764 mg/mL).

The same data set, now with this note: 22.0 °C.
Turning to `COC(F)(F)C(F)(F)C(F)(F)C(F)(F)F`, the log10 OH rate constant (cm³/molecule/s) was -14.1.

Staying with this data set, now noted: 23 °C.
`CCOP(=S)(Oc1ccc([N+](=O)[O-])cc1)c1ccccc1` (configuration not stated) registered a solubility of 0.00962 mM (≈ 0.00311 mg/mL).

Compound `C[Si]1(C)O[Si](C)(C)O[Si](C)(C)O[Si](C)(C)O[Si](C)(C)O1` had a solubility of 4.58e-05 mM (≈ 1.7e-05 mg/mL).

The data set is the same for the next values; noted with them: 23.0 °C.
Turning to `CCCCOCC(C)O` (configuration not stated), the log10 OH rate constant (cm³/molecule/s) was -10.4.

As for `c1ccc2c(c1)ccc1ccccc12`, the log10 OH rate constant (cm³/molecule/s) is -10.9.

Turning to `C=C1[C@H]2CC[C@@H]3[C@H]2C(C)(C)CCC[C@]13C`, the log10 OH rate constant (cm³/molecule/s) is -10.3.

The same data set, now with this note: 24 °C.
Compound `CCCCN(C)N=O` gave a solubility of 200 mM (≈ 23.2 mg/mL). This counts as millimolar.

Regarding `CCCCN(CC)N=O`, the solubility turned out to be 92.2 mM (≈ 12 mg/mL).

The same data set, now with this note: 25 °C.
`CC(C)N(C(=O)SCC(Cl)=CCl)C(C)C` showed a solubility of 0.0518 mM (≈ 0.014 mg/mL).

On to `Cc1ccc2c(c1N)C(=O)c1ccccc1C2=O`, for which the solubility came to 0.0014 mM (≈ 0.000332 mg/mL).

In the case of `CCCCC(C)CCC` (configuration not stated), the solubility was 0.000897 mM (≈ 0.000115 mg/mL). This solubility is about 1.6-fold lower than that of the compound before.

The compound `OCCCc1ccccc1` showed a solubility of 41.7 mM (≈ 5.68 mg/mL). Compared with the last compound, the solubility is about 46000-fold higher.

The compound `Nc1ccc(Cc2ccc(N)cc2)cc1` gave a solubility of 5.04 mM (≈ 1 mg/mL).

The compound `CCOC(=O)COc1cc(Cl)c(Cl)cc1Cl` gave a solubility of 0.0141 mM (≈ 0.00401 mg/mL). This solubility is about 360-fold lower than that of the compound before.

The compound `CCC(C)=NO` displayed a solubility of 1150 mM (≈ 100 mg/mL). This solubility is about 82000-fold higher than that of the compound before.

In turn, `c1ccc2nc(-c3ccc4ccccc4n3)ccc2c1` returned a solubility of 0.00398 mM (≈ 0.00102 mg/mL).

The compound `Cl[C@H]1[C@H](Cl)[C@@H](Cl)[C@@H](Cl)[C@H](Cl)[C@H]1Cl` (racemic) came in with a solubility of 0.00942 mM (≈ 0.00274 mg/mL). Against the preceding compound, the solubility is about 2.4-fold higher.

`CCCCOC(=O)c1ccccc1C(=O)OCc1ccccc1` yielded a solubility of 0.00861 mM (≈ 0.00269 mg/mL). The solubility values of the last two compounds are within 1.5-fold of each other.

`CCC(Cl)(Cl)Cl`: the solubility came to 12.9 mM (≈ 1.9 mg/mL).

For the compound `CNC1(c2ccccc2Cl)CCCCC1=O.Cl` (configuration not stated), the solubility was found to be 729 mM.

As to `CCCCCCCCCCCCC`, the solubility was 2.55e-05 mM (≈ 4.7e-06 mg/mL).

Regarding `CCN(CC)c1ccccc1`, the solubility amounted to 0.938 mM (≈ 0.14 mg/mL).

As for `C[C@]12C[C@H](O)[C@H]3[C@@H](CCC4=CC(=O)CC[C@@]43C)[C@@H]1CC[C@@H]2C(=O)CO`, the solubility was 0.574 mM (≈ 0.199 mg/mL).

`CN(C)c1ccc(N=Nc2ccccc2)cc1` returned a solubility of 0.00102 mM (≈ 0.00023 mg/mL).

Regarding `Cc1ccc(CO)cc1`, the solubility stood at 63.1 mM (≈ 7.71 mg/mL).

On to `C=C(C)C(=C)C`, for which the solubility is 3.97 mM (≈ 0.327 mg/mL).

Compound `OCc1cccc2ccccc12` showed a solubility of 18 mM (≈ 2.85 mg/mL).

Regarding `CCOC(=O)N(C)N=O`, the solubility came to 280 mM (≈ 37 mg/mL).

`CCOC=O` yielded a solubility of 1190 mM (≈ 88.2 mg/mL).

In the case of `CCOC(C)=O`, the solubility came to 908 mM (≈ 80 mg/mL).

For `COC`, the solubility was 7660 mM (≈ 353 mg/mL). Compared with the last compound, the solubility is about 8.4-fold higher.

Take `COCC(C)OC(C)=O` (configuration not stated): the solubility came out at 1500 mM (≈ 198 mg/mL). Against the preceding compound, the solubility is about 5.1-fold lower.

Take `COC(=O)COc1ccc(Cl)cc1Cl`: the solubility is 1.1 mM (≈ 0.258 mg/mL).

Regarding `O=[N+]([O-])c1cccc2ccccc12`, the solubility was determined as 0.053 mM (≈ 0.00918 mg/mL).

For the compound `C=CCCCCCCCC`, the solubility was 0.00406 mM (≈ 0.00057 mg/mL).

`CCCCCCCCCCCCCCC`: the solubility came to 3.58e-07 mM (≈ 7.6e-08 mg/mL).

With `Cc1cccc(Oc2ccc([N+](=O)[O-])cc2)c1`, the solubility worked out at 0.0218 mM (≈ 0.005 mg/mL).

Staying with this data set, now noted: 25.0 °C.
As for `CCCCl`, the log10 OH rate constant (cm³/molecule/s) was -12.

In the case of `NCC(F)(F)F`, the log10 OH rate constant (cm³/molecule/s) was -12.

For `Cl[C@H]1[C@H](Cl)[C@@H](Cl)[C@@H](Cl)[C@H](Cl)[C@H]1Cl` (racemic), the log10 OH rate constant (cm³/molecule/s) is -12.8.

`CCCBr`: the log10 OH rate constant (cm³/molecule/s) was -11.9.

For the compound `COC(=O)OC`, the log10 OH rate constant (cm³/molecule/s) is -12.5.

For the compound `C[Si]1(C)O[Si](C)(C)O[Si](C)(C)O[Si](C)(C)O[Si](C)(C)O1`, the log10 OH rate constant (cm³/molecule/s) was -11.8.

Consider `OCC(F)(F)C(F)(F)F`, for which the log10 OH rate constant (cm³/molecule/s) is -13.

For `C=C(C)C(=O)OC`, the log10 OH rate constant (cm³/molecule/s) is -10.6.

Take `C=Cc1ccccn1`: the log10 OH rate constant (cm³/molecule/s) is -10.2.

Turning to `CC(C)CC(=O)CC(C)C`, the log10 OH rate constant (cm³/molecule/s) is -10.6.

With `FC(F)(F)CC(F)(F)F`, the log10 OH rate constant (cm³/molecule/s) was -15.

As to `CC(=O)CCC(C)C`, the log10 OH rate constant (cm³/molecule/s) is -11.

The data set is the same for the next values; noted with them: 28 °C.
On to `O=C(O)Cc1c(Cl)ccc(Cl)c1Cl`, for which the solubility is 0.835 mM (≈ 0.2 mg/mL).

Staying with this data set, now noted: 30 °C.
Compound `Ic1ccccc1` displayed a solubility of 1.67 mM (≈ 0.34 mg/mL).

Staying with this data set, now noted: pH 7.4.
The compound `COc1c(C)c2c(c(O)c1C/C=C(\C)CCC(=O)OCCN1CCOCC1)C(=O)OC2` returned a logD of 2.38.

A word on the logP: it is the decadic logarithm of the partition coefficient of the neutral form, usually between octanol and water. Usually solubility stands for how much of the substance goes into solution per volume. Low readings indicate a poorly soluble substance, high ones a readily soluble substance. As usually defined, the logD is lipophilicity at a set pH, counting ionised and neutral species. A low value points to a more hydrophilic compound.
